Experimental data published in patent publication US11351173B2, “Substituted pyrrolo[1,2-a]pyrimidines and their use in the treatment of medical disorders” (Bial—R&D Investments, S.A., priority 2014, dated 2022).
In brackets after ≈: the same amount, converted by molar mass.

Assays:
[1] = Compound solubility in water; settings: water, Compound Solubility in Water
[2] = biological target: T1, glucocerebrosidase (Gcase) (Homo sapiens, UniProt P04062); test: Glucocerebrosidase (Gcase) activation assay, 4-methylumbelliferyl-beta-D-glucopyranoside substrate, fluorescence readout; format: biochemical; settings: for activation at 0.1 µM: test compound at 0.1 μM, read-out: Percent Gcase Activation, 0.1 μM Test Compound; for activation at 1 µM: test compound at 1.0 μM, read-out: Percent Gcase Activation, 1 μM Test Compound
T1 construct: micellar solution containing 10 nM GCase and 100 nM saposin C
T1 sequence (P04062 40-536): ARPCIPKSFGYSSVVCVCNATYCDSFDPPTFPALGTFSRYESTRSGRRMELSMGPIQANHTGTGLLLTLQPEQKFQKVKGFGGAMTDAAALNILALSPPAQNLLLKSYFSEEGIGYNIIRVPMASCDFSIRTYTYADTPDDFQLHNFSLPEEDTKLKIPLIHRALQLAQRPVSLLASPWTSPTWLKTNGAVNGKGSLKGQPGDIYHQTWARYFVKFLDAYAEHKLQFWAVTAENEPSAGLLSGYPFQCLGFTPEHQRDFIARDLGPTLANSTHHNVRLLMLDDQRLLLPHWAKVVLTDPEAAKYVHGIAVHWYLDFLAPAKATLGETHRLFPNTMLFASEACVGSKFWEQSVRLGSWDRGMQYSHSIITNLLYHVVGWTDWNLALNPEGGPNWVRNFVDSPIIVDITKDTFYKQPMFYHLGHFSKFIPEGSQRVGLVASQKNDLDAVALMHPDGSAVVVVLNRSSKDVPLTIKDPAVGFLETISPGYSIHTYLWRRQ
Protocol: The ability of exemplary compounds to activate glucocerebrosidase (Gcase) was measured.
A 484 μL aliquot of a 1.0 mg/mL solution of phosphatidylserine (PS) (Sigma P7769) in chloroform was evaporated under a stream of nitrogen for 1 hour. The lipid film was dissolved over 4 minutes of vigorous vortexing in 40 mL of 176 mM K2HPO4/50 mM citric acid (pH 4.7) containing 7.5 μL of triton X-100, resulting in a mixed micellar preparation with a composition of 0.32 mM triton and 0.37 mol % PS. 4-Methylumbelliferyl-beta-D-glucopyranoside (ACROS-337025000) was dissolved in the micellar solution to a final concentration of 2 mM for use as the reaction substrate.
Test compounds were diluted to the desired concentrations with dimethylsulfoxide (DMSO) from 10 mM stocks, and 0.41 μL of the DMSO compound mixture was added to 100 μL of micellar solution containing 10 nM GCase and 100 nM saposin C (Enzo ALX-201-262-C050). Pre-incubation was allowed to occur for 30 minutes at room temperature, after which the reaction was initiated by combining 25 μL of substrate solution with 25 μL of compound/GCase/saposin mixture. The reaction proceeded for 15 minutes at room temperature and was stopped by adding 150 μL of 1M glycine, pH 12.5. The endpoint of the reaction was monitored by measuring fluorescence intensity (excitation: 365 nm; emission: 440 nm) on a SpectraMax i3 instrument (Molecular Devices). Test compounds were screened at 1.0 and 0.1 μM final concentration, and subsequent 8-point dose response curves were obtained using 3-fold dilutions from a maximum final concentration of 5 μM.

Row | solubility ([1]; in water) | activation at 0.1 µM [2] | activation at 1 µM [2] | solubility [1] | Structure (SMILES)
1 | 0.9 µg/mL (≈ 2.11 µM) | 10 to 20% | > 60% | – | COCc1cc(C2CC2)nc2c(C(=O)NC3(C)CCOc4cc(F)c(F)cc43)ccn12 (stereo not drawn) [III-266]
2 | – | > 20% | > 60% | 1.3 µg/mL (≈ 3.78 µM) | CCCOC[C@H]1CC[C@H](NC(=O)c2ccn3c(C)cc(C)nc23)CC1 [III-114]
3 | – | > 20% | > 60% | 0.06 µg/mL (≈ 0.171 µM) | Cc1cc(Cl)nc2c(C(=O)NC3c4ccccc4C4CC3C4)ccn12 (stereo not drawn) [III-69]
4 | 0.9 µg/mL (≈ 2.82 µM) | > 20% | > 60% | – | Cc1cc(C)n2ccc(C(=O)NC3CCc4ccccc4C3)c2n1 (stereo not drawn) [III-228]
5 | – | > 20% | 30 to 60% | 0.06 µg/mL (≈ 0.174 µM) | Cc1cc(C)n2ccc(C(=O)Nc3ccc(-c4cnn(C)c4)cc3)c2n1 [III-12]
6 | 1.8 µg/mL (≈ 5.89 µM) | > 20% | > 60% | – | Cc1cc(C)n2ccc(C(=O)NC3CCc4ccccc43)c2n1 (stereo not drawn) [III-216]
7 | – | 10 to 20% | > 60% | 0.8 µg/mL (≈ 2.13 µM) | Cc1cc(C)n2ccc(C(=O)NC3CC=C(CCCO)c4ccccc43)c2n1 (stereo not drawn) [III-144]
8 | 2.1 µg/mL (≈ 5.26 µM) | > 20% | > 60% | – | CCCCO[C@H]1CC[C@H](NC(=O)c2ccn3c(COC)cc(C4CC4)nc23)CC1 [III-268]
9 | 17 µg/mL (≈ 42.7 µM) | < 10% | 30 to 60% | – | CCCCCN(C)C(=O)[C@H]1CC[C@H](NC(=O)c2ccn3c(C)cc(C)nc23)CC1 [III-203]
10 | – | 10 to 20% | > 60% | 0.8 µg/mL (≈ 2.21 µM) | C#Cc1cccc(C(C)(C)NC(=O)c2ccn3c(COC)cc(C)nc23)c1 [III-63]
11 | – | 10 to 20% | > 60% | 2.3 µg/mL (≈ 6.22 µM) | CCCCO[C@H]1CC[C@H](NC(=O)c2ccn3c(C4CC4)cc(C)nc23)CC1 [III-44]
12 | – | < 10% | < 30% | 23.9 µg/mL (≈ 79.3 µM) | CO[C@H]1CC[C@H](NC(=O)c2ccn3c(C)cc(C)nc23)CC1 [III-89]
13 | – | 10 to 20% | > 60% | 4.2 µg/mL (≈ 11.4 µM) | Cc1cc(C)n2ccc(C(=O)N[C@H]3CC[C@H](Oc4cccs4)CC3)c2n1 [III-190]
14 | – | > 20% | > 60% | 8.5 µg/mL (≈ 24.9 µM) | Cc1cc(C)n2ccc(C(=O)N[C@H]3CC[C@H](OC4CCC4)CC3)c2n1 [III-101]
15 | 15.7 µg/mL (≈ 49 µM) | < 10% | < 30% | – | Cc1cc(C)n2ccc(C(=O)NC3CCCc4ccncc43)c2n1 (stereo not drawn) [III-227]
16 | – | 10 to 20% | 30 to 60% | 15.3 µg/mL (≈ 47.6 µM) | Cc1cc(C)n2ccc(C(=O)NCC3CCC(F)(F)CC3)c2n1 [III-153]
17 | – | > 20% | > 60% | 0.1 µg/mL (≈ 0.276 µM) | COc1cc(-c2cocn2)ccc1NC(=O)c1ccn2c(C)cc(C)nc12 [III-109]
18 | – | < 10% | 30 to 60% | 0.02 µg/mL (≈ 0.0503 µM) | Cc1cc(Br)n2ccc(C(=O)Nc3ccc(-c4cocn4)cc3)c2n1 [III-41]
19 | – | > 20% | > 60% | 0.6 µg/mL (≈ 1.62 µM) | CCCCO[C@H]1CC2CCC(C1)[C@H]2NC(=O)c1ccn2c(C)cc(C)nc12 [III-182]
20 | – | 10 to 20% | > 60% | 1.5 µg/mL (≈ 3.43 µM) | COCc1cc(C(F)F)nc2c(C(=O)NC3(C)CCOc4cc(F)c(F)cc43)ccn12 (stereo not drawn) [III-57]
21 | 1.3 µg/mL (≈ 3.49 µM) | 10 to 20% | > 60% | – | Cc1cc(C)n2ccc(C(=O)NC3Cc4ccc(-c5ncco5)cc4C3)c2n1 (stereo not drawn) [III-242]
22 | 0.5 µg/mL (≈ 1.56 µM) | < 10% | < 30% | – | Cc1cc(C)n2ccc(C(=O)Nc3ccc4c(c3)C(O)CC4)c2n1 (stereo not drawn) [III-222]
23 | – | > 20% | > 60% | 0.2 µg/mL (≈ 0.511 µM) | O=C(NC1CCCc2ccccc21)c1ccn2c(C(F)F)cc(C(F)F)nc12 (stereo not drawn) [III-24]
